From ChEMBL document CHEMBL1128255, “Synthesis of 11 beta-[18F]fluoro-5 alpha-dihydrotestosterone and 11 beta-[18F]fluoro-19-nor-5 alpha-dihydrotestosterone: preparation via halofluorination-reduction, receptor binding, and tissue distribution” (J Med Chem, 1995)

Columns and labels:
[1] = %ID/g is percent injected dose per gram of tissue and in vivo distribution of compound obtained after 2 hour (blocked) in prostate (d)/muscle; assay type: ADME, organism-based
[2] = %ID/g is percent injected dose per gram of tissue and in vivo distribution of compound obtained after 2 hour (low) in fat; assay type: ADME, organism-based, Adipose tissue
[3] = %ID/g is percent injected dose per gram of tissue and in vivo distribution of compound obtained after 1 hour in prostate (v)/muscle; assay type: ADME, organism-based
[4] = %ID/g is percent injected dose per gram of tissue and in vivo distribution of compound obtained after 2 hour in fat; assay type: ADME, organism-based, Adipose tissue
[5] = %ID/g is percent injected dose per gram of tissue and in vivo distribution of compound obtained after 2 hour in prostate (d); assay type: ADME, organism-based, Prostate gland
[6] = %ID/g is percent injected dose per gram of tissue and in vivo distribution of compound obtained after 4 hour in lung; assay type: ADME, organism-based
[7] = %ID/g is percent injected dose per gram of tissue and in vivo distribution of compound obtained after 2 hour (low) in prostate (v)/muscle; assay type: ADME, organism-based
[8] = %ID/g is percent injected dose per gram of tissue and in vivo distribution of compound obtained after 2 hour (blocked) in prostate (v); assay type: ADME, organism-based, Prostate gland
[9] = %ID/g is percent injected dose per gram of tissue and in vivo distribution of compound obtained after 2 hour (low) in liver; assay type: ADME, organism-based
[10] = %ID/g is percent injected dose per gram of tissue and in vivo distribution of compound obtained after 2 hour (blocked) in prostate (v)/blood; assay type: ADME, organism-based; settings: other tissue
[11] = %ID/g is percent injected dose per gram of tissue and in vivo distribution of compound obtained after 4 hour in bladder; assay type: ADME, organism-based, Urinary bladder
[12] = %ID/g is percent injected dose per gram of tissue and in vivo distribution of compound obtained after 1 hour in prostate (v); assay type: ADME, organism-based, Prostate gland
[13] = %ID/g is percent injected dose per gram of tissue and in vivo distribution of compound obtained after 2 hour in bladder; assay type: ADME, organism-based, Urinary bladder
[14] = %ID/g is percent injected dose per gram of tissue and in vivo distribution of compound obtained after 2 hour (low) in prostate (d)/biood; assay type: ADME, organism-based, Prostate gland
[15] = %ID/g is percent injected dose per gram of tissue and in vivo distribution of compound obtained after 2 hour in muscle; assay type: ADME, organism-based
[16] = %ID/g is percent injected dose per gram of tissue and in vivo distribution of compound obtained after 2 hour in bone; assay type: ADME, organism-based, Bone element
[17] = %ID/g is percent injected dose per gram of tissue and in vivo distribution of compound obtained after 4 hour in prostate (d); assay type: ADME, organism-based, Prostate gland
[18] = %ID/g is percent injected dose per gram of tissue and in vivo distribution of compound obtained after 1 hour in fat; assay type: ADME, organism-based, Adipose tissue
[19] = target: T1, Androgen receptor (Rattus norvegicus) (UniProt P15207)
T1 sequence (whole entry): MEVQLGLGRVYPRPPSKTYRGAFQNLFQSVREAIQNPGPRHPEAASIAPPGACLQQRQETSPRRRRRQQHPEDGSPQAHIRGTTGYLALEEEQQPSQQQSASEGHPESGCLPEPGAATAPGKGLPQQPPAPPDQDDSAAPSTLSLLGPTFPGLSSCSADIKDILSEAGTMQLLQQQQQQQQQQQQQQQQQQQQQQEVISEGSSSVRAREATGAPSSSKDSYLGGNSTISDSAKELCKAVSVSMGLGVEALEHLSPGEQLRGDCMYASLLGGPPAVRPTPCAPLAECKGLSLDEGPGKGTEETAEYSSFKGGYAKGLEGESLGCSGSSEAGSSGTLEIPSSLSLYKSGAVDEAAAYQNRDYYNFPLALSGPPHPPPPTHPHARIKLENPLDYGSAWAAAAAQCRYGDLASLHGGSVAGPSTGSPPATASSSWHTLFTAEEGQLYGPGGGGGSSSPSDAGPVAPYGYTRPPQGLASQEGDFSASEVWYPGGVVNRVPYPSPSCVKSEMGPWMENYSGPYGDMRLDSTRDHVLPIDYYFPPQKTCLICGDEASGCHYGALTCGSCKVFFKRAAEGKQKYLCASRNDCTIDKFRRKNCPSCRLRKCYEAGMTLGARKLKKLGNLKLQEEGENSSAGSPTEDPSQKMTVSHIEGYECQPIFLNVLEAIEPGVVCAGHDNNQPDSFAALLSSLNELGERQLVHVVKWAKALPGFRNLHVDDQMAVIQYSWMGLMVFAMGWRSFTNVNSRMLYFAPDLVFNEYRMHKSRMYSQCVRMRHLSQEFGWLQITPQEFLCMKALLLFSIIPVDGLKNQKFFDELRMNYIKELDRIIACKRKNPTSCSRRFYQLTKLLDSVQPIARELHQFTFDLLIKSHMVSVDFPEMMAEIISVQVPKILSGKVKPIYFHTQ
Description: Binding selectivity index (BSI) as ratio of RBA for androgen receptor to non-specific binding of R1881

[20] = %ID/g is percent injected dose per gram of tissue and in vivo distribution of compound obtained after 2 hour (blocked) in bladder; assay type: ADME, organism-based, Urinary bladder
[21] = %ID/g is percent injected dose per gram of tissue and in vivo distribution of compound obtained after 2 hour (blocked) in fat; assay type: ADME, organism-based, Adipose tissue
[22] = %ID/g is percent injected dose per gram of tissue and in vivo distribution of compound obtained after 1 hour in blood; assay type: ADME, organism-based
[23] = %ID/g is percent injected dose per gram of tissue and in vivo distribution of compound obtained after 4 hour in muscle; assay type: ADME, organism-based
[24] = %ID/g is percent injected dose per gram of tissue and in vivo distribution of compound obtained after 1 hour in bladder; assay type: ADME, organism-based, Urinary bladder
[25] = %ID/g is percent injected dose per gram of tissue and in vivo distribution of compound obtained after 1 hour in prostate (d); assay type: ADME, organism-based, Prostate gland
physchem = settings: octanol/water
Description: Partition coefficient (logP)

[26] = %ID/g is percent injected dose per gram of tissue and in vivo distribution of compound obtained after 2 hour (low) in muscle; assay type: ADME, organism-based
[27] = %ID/g is percent injected dose per gram of tissue and in vivo distribution of compound obtained after 2 hour (low) in lung; assay type: ADME, organism-based
[28] = %ID/g is percent injected dose per gram of tissue and in vivo distribution of compound obtained after 2 hour (blocked) in prostate (v)/muscle; assay type: ADME, organism-based
[29] = %ID/g is percent injected dose per gram of tissue and in vivo distribution of compound obtained after 2 hour (blocked)i n prostate (d)/biood; assay type: ADME, organism-based, Prostate gland
[30] = %ID/g is percent injected dose per gram of tissue and in vivo distribution of compound obtained after 2 hour in blood; assay type: ADME, organism-based
[31] = %ID/g is percent injected dose per gram of tissue and in vivo distribution of compound obtained after 4 hour in blood; assay type: ADME, organism-based
[32] = %ID/g is percent injected dose per gram of tissue and in vivo distribution of compound obtained after 4 hour in prostate (v)/muscle; assay type: ADME, organism-based
[33] = %ID/g is percent injected dose per gram of tissue and in vivo distribution of compound obtained after 2 hour (low) in prostate (d)/muscle; assay type: ADME, organism-based
[34] = %ID/g is percent injected dose per gram of tissue and in vivo distribution of compound obtained after 4 hour in fat; assay type: ADME, organism-based, Adipose tissue
[35] = %ID/g is percent injected dose per gram of tissue and in vivo distribution of compound obtained after 2 hour in lung; assay type: ADME, organism-based
[36] = %ID/g is percent injected dose per gram of tissue and in vivo distribution of compound obtained after 1 hour in prostate (d)/muscle; assay type: ADME, organism-based

Compound `C[C@]12CCC(=O)C[C@@H]1CC[C@@H]1[C@@H]2[C@@H](F)C[C@]2(C)[C@@H](O)CC[C@@H]12` has an ID/g [1] of 3.089%, an ID/g [2] of 0.02% and an ID/g [3] of 8.208%. It also gave an ID/g [4] of 0.024%, an ID/g [5] of 0.352% and an ID/g [6] of 0.035%. It also gave an ID/g [7] of 8.86%, an ID/g [8] of 0.069% and an ID/g [9] of 0.228%. The ID/g [10] was 1.357%, the ID/g [11] was 0.268% and the ID/g [12] was 0.486%. It also gave an ID/g [13] of 0.165%, an ID/g [14] of 11.358% and an ID/g [15] of 0.038%. It also gave an ID/g [16] of 0.061%, an ID/g [17] of 0.291% and an ID/g [18] of 0.061%. For the same compound, the BSI [19] was 42.8, the ID/g [20] was 0.903% and the ID/g [21] was 0.026%. It also gave an ID/g [22] of 0.092%, an ID/g [23] of 0.017% and an ID/g [24] of 1.245%. It also gave an ID/g [25] of 0.459%, a logP (physchem) of 3.5 and an ID/g [26] of 0.026%. It also gave an ID/g [27] of 0.036%, an ID/g [28] of 2.895% and an ID/g [29] of 1.465%. For the same compound, the ID/g [30] was 0.038%, the ID/g [31] was 0.028% and the ID/g [32] was 19.715%. For the same compound, the ID/g [33] was 9.78%, the ID/g [34] was 0.012% and the ID/g [35] was 0.069%. The ID/g [36] was 7.75%.
Work on `C[C@]12C[C@H](F)[C@H]3[C@@H](CC[C@H]4CC(=O)CC[C@@H]43)[C@@H]1CC[C@@H]2O` yielded an ID/g [1] of 1.61%, an ID/g [2] of 0.041% and an ID/g [3] of 4.4%. It also gave an ID/g [4] of 0.041%, an ID/g [5] of 0.132% and an ID/g [6] of 0.046%. For the same compound, the ID/g [7] was 2.993%, the ID/g [8] was 0.054% and the ID/g [9] was 1.045%. For the same compound, the ID/g [10] was 0.88%, the ID/g [11] was 0.456% and the ID/g [12] was 0.284%. The ID/g [13] was 4.549%, the ID/g [14] was 3.126% and the ID/g [15] was 0.035%. The ID/g [16] was 0.077%, the ID/g [17] was 0.084% and the ID/g [18] was 0.069%. For the same compound, the BSI [19] was 91.8, the ID/g [20] was 11.404% and the ID/g [21] was 0.036%. The ID/g [22] was 0.089%, the ID/g [23] was 0.027% and the ID/g [24] was 3.331%. For the same compound, the ID/g [25] was 0.21%, the logP (physchem) was 3.1 and the ID/g [26] was 0.037%. It also gave an ID/g [27] of 0.061%, an ID/g [28] of 1.763% and an ID/g [29] of 0.815%. For the same compound, the ID/g [30] was 0.046%, the ID/g [31] was 0.035% and the ID/g [32] was 2.919%. It also gave an ID/g [33] of 3.83%, an ID/g [34] of 0.022% and an ID/g [35] of 0.058%. It also gave an ID/g [36] of 3.473%.
